The record followed here is ChEMBL document CHEMBL1132081, “Design, synthesis, and structure-activity relationship studies of himbacine derived muscarinic receptor antagonists” (Bioorg Med Chem Lett, 1999).

In assay [1] the target is T1, Muscarinic acetylcholine receptor M2 (Homo sapiens, UniProt P08172).
T1 sequence (P08172 whole entry): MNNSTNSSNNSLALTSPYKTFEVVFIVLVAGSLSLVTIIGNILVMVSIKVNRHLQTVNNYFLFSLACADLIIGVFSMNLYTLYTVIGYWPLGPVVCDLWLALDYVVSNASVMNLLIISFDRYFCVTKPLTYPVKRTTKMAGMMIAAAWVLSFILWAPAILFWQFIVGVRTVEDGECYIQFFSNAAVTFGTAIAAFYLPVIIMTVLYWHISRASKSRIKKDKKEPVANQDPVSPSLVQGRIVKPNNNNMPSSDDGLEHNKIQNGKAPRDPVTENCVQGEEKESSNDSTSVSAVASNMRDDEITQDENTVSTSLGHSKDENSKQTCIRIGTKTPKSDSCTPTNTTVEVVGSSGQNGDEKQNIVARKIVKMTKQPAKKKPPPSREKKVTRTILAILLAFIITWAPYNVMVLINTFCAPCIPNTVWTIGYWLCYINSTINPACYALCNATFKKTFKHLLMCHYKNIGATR
As to the kind of experiment: Binding affinity towards human muscarinic M2 receptor in CHO-KI cells using [3H]- QNB as radioligand. Type of assay: cell-based.

The target of assay [2] is T2, Muscarinic acetylcholine receptor M1 (Homo sapiens, UniProt P11229).
T2 sequence (P11229 whole entry): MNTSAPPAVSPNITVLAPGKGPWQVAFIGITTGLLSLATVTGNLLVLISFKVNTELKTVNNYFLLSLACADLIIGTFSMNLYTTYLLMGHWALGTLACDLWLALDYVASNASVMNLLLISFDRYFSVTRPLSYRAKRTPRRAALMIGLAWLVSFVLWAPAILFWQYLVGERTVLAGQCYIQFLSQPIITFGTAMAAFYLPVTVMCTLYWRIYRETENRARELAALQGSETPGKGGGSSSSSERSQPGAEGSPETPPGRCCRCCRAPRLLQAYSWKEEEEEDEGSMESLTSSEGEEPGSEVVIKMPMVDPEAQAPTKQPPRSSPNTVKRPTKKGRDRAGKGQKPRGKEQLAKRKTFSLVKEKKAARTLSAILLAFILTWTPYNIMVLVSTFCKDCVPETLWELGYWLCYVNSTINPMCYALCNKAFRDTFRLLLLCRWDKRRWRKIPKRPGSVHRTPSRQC
As to the kind of experiment: Binding affinity towards human muscarinic M1 receptor in CHO-KI cells using [3H]- QNB as radioligand. Type of assay: cell-based.

With `C[C@@H]1OC(=O)[C@H]2C[C@H]3CCCC[C@@H]3[C@@H](CCCNC34CC5CC(CC(C5)C3)C4)[C@@H]12`, the values for the Ki in assay [1] and in assay [2] were 0.026 µM and 0.136 µM, respectively.

For `C[C@@H]1OC(=O)[C@H]2C[C@H]3CCCC[C@@H]3[C@@H](CCCN3CCN(C(=O)OC(C)(C)C)CC3)[C@@H]12`, the Ki (commonly the dissociation constant of the complex between target and ligand, obtained from inhibition or displacement) is 0.485 µM in assay [1] and 0.445 µM in assay [2].

As for `CC1CCCCN1CCC[C@@H]1[C@H]2CCCC[C@@H]2C[C@@H]2C(=O)O[C@@H](C)[C@H]12` (stereo not given in full), the figures for the Ki in assay [1] and in assay [2] were 0.275 µM and 0.399 µM, respectively.

With `CC1CCCN(CCC[C@@H]2[C@H]3CCCC[C@@H]3C[C@@H]3C(=O)O[C@@H](C)[C@H]23)C1` (stereo not given in full), the inhibition constant Ki in assay [1] is 0.312 µM; in assay [2], 0.376 µM.

Take `C[C@@H]1OC(=O)[C@H]2C[C@H]3CCCC[C@@H]3[C@@H](CCCN3CCC(O)CC3)[C@@H]12`: the Ki in assay [1] is more than 0.28 µM; in assay [2] it was more than 0.9 µM.

As to `C[C@@H]1OC(=O)[C@H]2C[C@H]3CCCC[C@@H]3[C@@H](CCCN3CCN[C@@H](C)C3)[C@@H]12`, the values for the inhibition constant (Ki) in assay [1] and in assay [2] were more than 0.5 µM and 0.581 µM, respectively.

As for `CCC1CCCCN1CCC[C@@H]1[C@H]2CCCC[C@@H]2C[C@@H]2C(=O)O[C@@H](C)[C@H]12` (stereo not given in full), the inhibitory constant (Ki) in assay [1] was 0.209 µM; in assay [2] it was 0.341 µM.

As to `CC1CN(CCC[C@@H]2[C@H]3CCCC[C@@H]3C[C@@H]3C(=O)O[C@@H](C)[C@H]23)CC(C)O1` (stereo not given in full), the values for the Ki in assay [1] and in assay [2] were 0.376 µM and 0.601 µM, respectively.

With `CC1CN(CCC[C@@H]2[C@H]3CCCC[C@@H]3C[C@@H]3C(=O)O[C@@H](C)[C@H]23)C(C)CN1` (stereo not given in full), the Ki in assay [1] came to 0.57 µM; in assay [2], 0.353 µM.

`C[C@@H]1OC(=O)[C@H]2C[C@H]3CCCC[C@@H]3[C@@H](CCCN3CCCCC3)[C@@H]12`: the Ki in assay [1] is 0.352 µM; in assay [2], 0.427 µM.

Turning to `C[C@@H]1OC(=O)[C@H]2C[C@H]3CCCC[C@@H]3[C@@H](CCCN3CCSCC3)[C@@H]12`, the inhibition constant (Ki) in assay [1] stood at 0.189 µM; in assay [2], 0.179 µM.

Regarding `C[C@@H]1OC(=O)[C@H]2C[C@H]3CCCC[C@@H]3[C@@H](CCCN3CCCC(C)(C)C3)[C@@H]12`, the Ki in assay [1] came to 0.224 µM; in assay [2], 0.416 µM.

On to `CC1CN(CCC[C@@H]2[C@H]3CCCC[C@@H]3C[C@@H]3C(=O)O[C@@H](C)[C@H]23)CC(C)N1` (stereo not given in full), for which the Ki in assay [1] is more than 0.5 µM; in assay [2] it was 1.36 µM.

With `CC1CCN(CCC[C@@H]2[C@H]3CCCC[C@@H]3C[C@@H]3C(=O)O[C@@H](C)[C@H]23)CC1`, the figures for the Ki in assay [1] and in assay [2] were 0.283 µM and 0.554 µM, respectively.

In the case of `C[C@@H]1OC(=O)[C@H]2C[C@H]3CCCC[C@@H]3[C@@H](/C=C/[C@H]3CCC[C@H](C)N3C)[C@@H]12` [HIMBACINE], the Ki in assay [1] came to 0.0484 µM; in assay [2], 0.0045 µM.

In the case of `C[C@@H]1CN(CCC[C@@H]2[C@H]3CCCC[C@@H]3C[C@@H]3C(=O)O[C@@H](C)[C@H]23)CCN1`, the Ki is more than 0.5 µM in assay [1] and 0.857 µM in assay [2].

In the case of `C[C@@H]1OC(=O)[C@H]2C[C@H]3CCCC[C@@H]3[C@@H](CCCN3CCCC(O)C3)[C@@H]12` (stereo not given in full), the Ki in assay [1] is 0.148 µM; in assay [2] it was 1.53 µM.

For `C[C@@H]1OC(=O)[C@H]2C[C@H]3CCCC[C@@H]3[C@@H](CCCN3CCN(C)CC3)[C@@H]12`, the Ki in assay [1] came to 0.595 µM; in assay [2], 0.579 µM.

On to `C[C@@H]1OC(=O)[C@H]2C[C@H]3CCCC[C@@H]3[C@@H](CCCN3CCC(N4CCCCC4)CC3)[C@@H]12`, for which the inhibition constant (Ki) in assay [1] came out at 0.65 µM; in assay [2] it was 0.312 µM.

`C[C@@H]1OC(=O)[C@H]2C[C@H]3CCCC[C@@H]3[C@@H](CCCN3CCOCC3)[C@@H]12`: the Ki amounted to 0.051 µM in assay [1] and 0.222 µM in assay [2].

Regarding `C[C@@H]1OC(=O)[C@H]2C[C@H]3CCCC[C@@H]3[C@@H](CCCN3CCN(C4CCCCC4)CC3)[C@@H]12`, the values for the Ki in assay [1] and in assay [2] were 0.52 µM and 0.464 µM, respectively.

Consider `C[C@@H]1OC(=O)[C@H]2C[C@H]3CCCC[C@@H]3[C@@H](CCCN3CCc4ccccc4C3)[C@@H]12`, for which the Ki in assay [1] was found to be 0.184 µM; in assay [2], 0.304 µM.

For `C[C@@H]1OC(=O)[C@H]2C[C@H]3CCCC[C@@H]3[C@@H](CC[C@H]3CCC[C@H](C)N3C)[C@@H]12`, the Ki was 0.0322 µM in assay [1] and 0.0043 µM in assay [2].

With `C[C@@H]1OC(=O)[C@H]2C[C@H]3CCCC[C@@H]3[C@@H](CCCN3CCNCC3)[C@@H]12`, the Ki was more than 0.042 µM in assay [1] and more than 0.42 µM in assay [2].

`C[C@@H]1OC(=O)[C@H]2C[C@H]3CCCC[C@@H]3[C@@H](CCCN3CCCC4CCCCC43)[C@@H]12` (stereo not given in full): the Ki is 0.013 µM in assay [1] and 0.038 µM in assay [2].
